This note sets out measurements from patent US4945160A, “Preparation of certain 7-substituted quinolones” (Warner-Lambert Company, priority 1988, dated 1990).

Holding throughout (assay type): cell-based
One test has as its system P. rettgeri. As to the kind of experiment: In vitro antibacterial activity, microdilution MIC, P. rettgeri. The note with it: Providencia rettgeri, microdilution method, read-out: Minimal Inhibitory Concentration MIC. From the text: (§1) The compounds of the invention display antibacterial activity when tested by the microdilution method as described in Heifetz, et al, Antimicr. Agents and Chemoth., 6, 124 (1974), which is incorporated herein by reference.
(§2) By use of this method, the following minimum inhibitory concentration values (MICs in μg/ml) were obtained for representative compounds of the invention.
A general note: Dilution methods test growth across graded concentrations, often in twofold steps.

The subject of another test is E. cloacae. The test can be described thus: In vitro antibacterial activity, microdilution MIC, E. cloacae. The note with it: Enterobacter cloacae, microdilution method, read-out: Minimal Inhibitory Concentration MIC.
Text: as §1, §2

Another test relates to K. pneumoniae. The test can be described thus: In vitro antibacterial activity, microdilution MIC, K. pneumoniae. As to conditions: Klebsiella pneumoniae, microdilution method, read-out: Minimal Inhibitory Concentration MIC.
Text: as §1, §2

The test system of the next test is S. faecalis. As to the kind of experiment: In vitro antibacterial activity, microdilution MIC, S. faecalis. As to conditions: Enterococcus faecalis, microdilution method, read-out: Minimal Inhibitory Concentration MIC.
Text: as §1, §2

A further test concerns S. aureus. The test can be described thus: In vitro antibacterial activity, microdilution MIC, S. aureus. As to conditions: microdilution method; for MIC: Staphylococcus aureus, first S. aureus line (strain not given), read-out: Minimal Inhibitory Concentration MIC; for Minimal Inhibitory Concentration MIC: second S. aureus line (strain not given).
Text: as §1, §2

The subject of another test is P. aeruginosa. The test can be described thus: In vitro antibacterial activity, microdilution MIC, P. aeruginosa. As to conditions: Pseudomonas aeruginosa, microdilution method, read-out: Minimal Inhibitory Concentration MIC.
Text: as §1, §2

Another test relates to E. coli. The test can be described thus: In vitro antibacterial activity, microdilution MIC, E. coli. The note with it: Escherichia coli, microdilution method, read-out: Minimal Inhibitory Concentration MIC.
Text: as §1, §2

Another test deals with S. pneumoniae. The test can be described thus: In vitro antibacterial activity, microdilution MIC, S. pneumoniae. The note with it: Streptococcus pneumoniae, microdilution method, read-out: Minimal Inhibitory Concentration MIC.
Text: as §1, §2

Another test has as its system S. pyogenes. The test can be described thus: In vitro antibacterial activity, microdilution MIC, S. pyogenes. The note with it: Streptococcus pyogenes, microdilution method, read-out: Minimal Inhibitory Concentration MIC.
Text: as §1, §2

[1] abbreviates: first E. coli line (strain not given).
[2] abbreviates: second E. coli line, last of table (strain not given).

Converted amounts (≈) assume the structure as drawn. Read-outs that look alike come from different tables or passages of the source.

With `CCn1cc(C(=O)O)c(=O)c2cc(F)c(C3CCN(Cc4ccccc4)C3)nc21` (stereo not shown) [Compound 10], the MIC was greater than 25 µg/mL in the test on P. rettgeri; 12.5 µg/mL (≈ 31.6 µM) in the test on E. cloacae; 25 µg/mL (≈ 63.2 µM) in the test with K. pneumoniae; 25 µg/mL (≈ 63.2 µM) in the test with S. faecalis; 6.3 µg/mL (≈ 15.9 µM) with S. aureus; greater than 25 µg/mL in the test on P. aeruginosa. The MIC with E. coli (setting [1]), in the test on E. coli (setting [2]), in the test with S. pneumoniae and in the test with S. pyogenes was 12.5 µg/mL (≈ 31.6 µM) each time. The “Minimal Inhibitory Concentration MIC” value with S. aureus came to 6.3 µg/mL.
Consider `C=Cc1c(F)cc2c(=O)c(C(=O)O)cn(C3CC3)c2c1F` [Compound 5, 1-Cyclopropyl-7-ethenyl-6,8-difluoro-1,4-dihydro-4-oxo-3-quinolinecarboxylic acid], for which the MIC was 0.4 µg/mL (≈ 1.37 µM) in the test with P. rettgeri; 0.1 µg/mL (≈ 0.343 µM) with E. cloacae; 0.4 µg/mL (≈ 1.37 µM) in the test on K. pneumoniae; 0.2 µg/mL (≈ 0.687 µM) in the test on S. faecalis; no more than 0.025 µg/mL in the test on S. aureus; 1.6 µg/mL (≈ 5.49 µM) in the test on P. aeruginosa. The MIC in the test on E. coli (setting [1]) was 0.2 µg/mL (≈ 0.687 µM); in the test on E. coli (setting [2]), 0.1 µg/mL (≈ 0.343 µM); with S. pneumoniae, 0.8 µg/mL (≈ 2.75 µM); with S. pyogenes, 0.8 µg/mL (≈ 2.75 µM). The “Minimal Inhibitory Concentration MIC” value in the test on S. aureus was no more than 0.025 µg/mL.
